We go through 15 compounds from patent EP4678638A1, “NEW E3 UBIQUITIN LIGASE LIGAND, PROTEIN DEGRADATION AGENT AND USE THEREOF” (priority 2023, dated 2024).

pIC50: −log10 of the molar value. Where two headings read alike, the source gives them in different places.

For one test, the system named is SR. Description: CCK-8 proliferation, SR. In kind it is cell-based, Human. As to conditions: Homo sapiens; Table B10, compounds designed based on the IRAK4 inhibitors; SR cells; read-out: Inhibitory activity (IC50, nM) on tumor cell proliferation, SR. The essentials:
(§1)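 Tumor cells were cultured at 37°C with 5% CO2, seeded, and after 24h treated with compounds at 10 concentrations starting at 10µM (5-fold serial dilutions).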

For another test, the system named is MV-4-11. Briefly: CCK-8 proliferation, MV-4-11. The test is classed as cell-based, Human. The note with it: Homo sapiens, MV4-11; for IC50: Table B10, compounds designed based on the IRAK4 inhibitors, MV-4-11 cells, read-out: Inhibitory activity (IC50, nM) on tumor cell proliferation, MV-4-11; for pIC50: CCK-8, 72 or 96 hours, read-out: Inhibitory activity (IC50) on tumor cell proliferation, MV-4-11. The protocol:
The tumor cells used herein were cultured in a cell culture medium listed in table A1 at 37°C in an incubator with 5% CO2. Prior to experimentation, all cell lines used were correctly identified by STR profiling, and tested negative for mycoplasma contamination using a mycoplasma detection kit through routine screenings. Table A1. Tumor cells and cell culture medium used in the present disclosure
IC50 values of the compounds of the present disclosure (including the compounds in Table 1, and compounds of examples) were measured using the Meilun Cell Counting Kit-8 kit from Dalian Meilun Biotech Co., Ltd. Assay details are as follows: tumor cells were seeded in a 96-well plate at a density listed in Table A2. After 24h, 100 µL of the inoculated cells were treated with 0.5µL of the compounds of the present disclosure (including the compounds in Tables 1 and 2, and compounds of examples) at 10 different successively decreasing concentrations (starting at the highest concentration of 10µM; 5-fold serial dilutions). After the cells were treated with the compounds of the present disclosure for a period of time, the cell viability detection reagent was added to the culture medium for cell viability assessment according to the instructions provided with the CCK-8 kit. […] The growth inhibition of the compounds of the present disclosure on cells was plotted by Prism Graphpad software, and the IC50 values of the compounds of the present disclosure were calculated therefrom. […] Seeding protocol and treatment time for tumor cells

The target of a further test is T1, WEE1 (Homo sapiens, UniProt P30291+Q96SW2).
T1 construct: evaluate the effects of the compounds of the present disclosure on the expression of target proteins in cells; endogenous in cells; host or cells: hPBMC
T1 sequence (P30291 whole entry): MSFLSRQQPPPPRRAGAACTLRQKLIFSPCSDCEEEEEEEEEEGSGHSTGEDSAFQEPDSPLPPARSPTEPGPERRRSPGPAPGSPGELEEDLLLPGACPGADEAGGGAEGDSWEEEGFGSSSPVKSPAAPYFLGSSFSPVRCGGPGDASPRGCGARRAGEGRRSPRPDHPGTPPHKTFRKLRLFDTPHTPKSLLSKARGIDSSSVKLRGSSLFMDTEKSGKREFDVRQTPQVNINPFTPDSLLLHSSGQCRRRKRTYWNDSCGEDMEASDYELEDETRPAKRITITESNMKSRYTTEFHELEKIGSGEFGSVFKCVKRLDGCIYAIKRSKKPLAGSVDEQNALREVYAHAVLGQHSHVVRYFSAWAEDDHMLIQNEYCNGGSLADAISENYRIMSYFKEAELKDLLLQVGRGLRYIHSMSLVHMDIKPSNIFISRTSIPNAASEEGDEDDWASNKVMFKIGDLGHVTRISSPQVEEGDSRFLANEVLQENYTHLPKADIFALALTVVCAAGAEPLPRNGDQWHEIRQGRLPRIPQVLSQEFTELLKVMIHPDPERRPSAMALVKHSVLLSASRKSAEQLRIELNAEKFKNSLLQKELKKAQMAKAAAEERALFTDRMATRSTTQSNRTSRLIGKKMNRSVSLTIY
T1 sequence (Q96SW2 whole entry): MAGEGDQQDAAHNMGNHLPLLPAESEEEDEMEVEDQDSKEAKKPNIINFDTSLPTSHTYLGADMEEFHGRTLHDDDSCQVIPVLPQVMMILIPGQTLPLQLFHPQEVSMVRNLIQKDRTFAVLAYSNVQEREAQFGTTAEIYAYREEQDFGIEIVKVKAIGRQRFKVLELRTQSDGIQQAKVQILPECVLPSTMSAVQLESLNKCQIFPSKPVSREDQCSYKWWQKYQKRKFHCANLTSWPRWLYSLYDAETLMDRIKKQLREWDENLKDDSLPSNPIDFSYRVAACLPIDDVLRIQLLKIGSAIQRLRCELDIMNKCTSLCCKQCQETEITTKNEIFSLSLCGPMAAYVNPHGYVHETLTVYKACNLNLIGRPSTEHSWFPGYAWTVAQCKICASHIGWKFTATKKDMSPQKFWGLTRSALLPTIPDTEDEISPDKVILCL
T1 sequence (Q16531 whole entry partner): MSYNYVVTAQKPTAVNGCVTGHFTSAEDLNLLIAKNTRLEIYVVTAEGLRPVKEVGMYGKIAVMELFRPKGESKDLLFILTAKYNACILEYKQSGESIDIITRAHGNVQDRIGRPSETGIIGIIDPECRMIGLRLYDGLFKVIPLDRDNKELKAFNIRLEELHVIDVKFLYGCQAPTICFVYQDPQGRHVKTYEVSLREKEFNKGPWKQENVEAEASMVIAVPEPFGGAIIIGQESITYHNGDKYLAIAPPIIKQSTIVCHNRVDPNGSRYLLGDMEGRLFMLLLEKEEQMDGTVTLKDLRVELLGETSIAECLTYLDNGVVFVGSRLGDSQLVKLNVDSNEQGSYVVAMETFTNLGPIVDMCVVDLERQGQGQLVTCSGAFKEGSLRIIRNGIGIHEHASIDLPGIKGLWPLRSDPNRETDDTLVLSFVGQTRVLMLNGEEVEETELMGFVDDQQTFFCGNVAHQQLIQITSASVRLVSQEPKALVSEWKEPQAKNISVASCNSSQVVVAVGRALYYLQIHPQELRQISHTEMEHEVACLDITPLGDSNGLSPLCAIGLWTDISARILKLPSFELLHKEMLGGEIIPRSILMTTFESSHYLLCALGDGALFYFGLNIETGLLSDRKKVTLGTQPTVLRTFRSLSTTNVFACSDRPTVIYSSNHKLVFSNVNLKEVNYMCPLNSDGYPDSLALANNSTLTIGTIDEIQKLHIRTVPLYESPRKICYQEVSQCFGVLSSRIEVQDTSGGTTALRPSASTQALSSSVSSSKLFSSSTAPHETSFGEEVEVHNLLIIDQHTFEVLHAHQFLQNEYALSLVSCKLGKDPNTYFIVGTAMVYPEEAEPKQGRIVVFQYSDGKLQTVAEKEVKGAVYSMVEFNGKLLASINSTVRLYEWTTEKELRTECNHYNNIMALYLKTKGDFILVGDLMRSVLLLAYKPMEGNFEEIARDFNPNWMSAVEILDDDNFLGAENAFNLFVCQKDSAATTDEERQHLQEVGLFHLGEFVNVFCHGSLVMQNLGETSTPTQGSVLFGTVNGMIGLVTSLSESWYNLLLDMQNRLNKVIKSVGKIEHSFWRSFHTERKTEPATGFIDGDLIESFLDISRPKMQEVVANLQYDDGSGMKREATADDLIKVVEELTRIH
Briefly: Western blot degradation of WEE1 (hPBMC). The test is classed as cell-based. The note with it: Table D16. Put shortly: (§2)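 After compound exposure, cells were harvested and lysates run on SDS-PAGE, transferred to nitrocellulose and probed with antibodies. Remaining target (%) was computed from band grayscale relative to an internal control protein and normalised; degradation (%) was 100% minus that.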

For the next test, the target named is T2, IKZF2 (Homo sapiens, UniProt Q96SW2+Q9UKS7).
T2 construct: evaluate the effects of the compounds of the present disclosure on the expression of target proteins in cells; endogenous in cells; host or cells: hPBMC
T2 sequence (Q9UKS7 whole entry): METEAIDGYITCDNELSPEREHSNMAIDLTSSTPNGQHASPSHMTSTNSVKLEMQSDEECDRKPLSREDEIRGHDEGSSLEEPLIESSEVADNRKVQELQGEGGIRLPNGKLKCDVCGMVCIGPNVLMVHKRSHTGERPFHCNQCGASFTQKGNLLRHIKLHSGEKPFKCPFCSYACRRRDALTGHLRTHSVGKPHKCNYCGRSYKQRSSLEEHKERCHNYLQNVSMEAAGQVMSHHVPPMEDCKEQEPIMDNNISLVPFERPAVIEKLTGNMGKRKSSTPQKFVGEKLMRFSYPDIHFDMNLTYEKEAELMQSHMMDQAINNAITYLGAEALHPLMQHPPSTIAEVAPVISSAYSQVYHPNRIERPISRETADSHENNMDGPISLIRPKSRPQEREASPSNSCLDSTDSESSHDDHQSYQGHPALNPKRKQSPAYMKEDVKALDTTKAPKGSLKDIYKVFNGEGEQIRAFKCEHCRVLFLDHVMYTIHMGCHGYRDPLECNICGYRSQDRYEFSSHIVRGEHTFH
T2 sequence (Q96SW2 whole entry): as the sequence (Q96SW2 whole entry) above
T2 sequence (Q16531 whole entry partner): as the sequence (Q16531 whole entry partner) above
Description: Western blot degradation of IKZF2 (hPBMC). The note with it: Table D16. The test is classed as cell-based. The essentials: as §2
Background: Immunoblotting shows a protein as a band on a membrane.

Another test deals with T3, IKZF1 (Homo sapiens, UniProt Q13422+Q96SW2).
T3 construct: evaluate the effects of the compounds of the present disclosure on the expression of target proteins in cells; endogenous in cells; host or cells: hPBMC
T3 sequence (Q13422 whole entry): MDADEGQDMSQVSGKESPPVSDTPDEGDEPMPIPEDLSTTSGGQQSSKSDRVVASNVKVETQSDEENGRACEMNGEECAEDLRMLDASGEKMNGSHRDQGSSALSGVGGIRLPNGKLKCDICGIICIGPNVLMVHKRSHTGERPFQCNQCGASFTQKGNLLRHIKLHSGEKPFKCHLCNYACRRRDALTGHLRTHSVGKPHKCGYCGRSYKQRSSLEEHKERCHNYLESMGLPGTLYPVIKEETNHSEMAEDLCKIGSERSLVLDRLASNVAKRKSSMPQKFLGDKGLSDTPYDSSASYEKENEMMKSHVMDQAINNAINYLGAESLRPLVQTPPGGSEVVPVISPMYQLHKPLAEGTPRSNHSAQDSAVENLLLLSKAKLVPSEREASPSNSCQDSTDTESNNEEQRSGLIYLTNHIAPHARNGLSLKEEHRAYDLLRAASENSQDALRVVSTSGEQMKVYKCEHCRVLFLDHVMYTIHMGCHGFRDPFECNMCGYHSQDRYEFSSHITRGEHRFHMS
T3 sequence (Q96SW2 whole entry): as the sequence (Q96SW2 whole entry) above
T3 sequence (Q16531 whole entry partner): as the sequence (Q16531 whole entry partner) above
Description: Western blot degradation of IKZF1 (hPBMC). In kind it is cell-based. As to conditions: Table D16. Put shortly:
as §2

The target of a further test is T4, GSPT1 (Homo sapiens, UniProt P15170+Q96SW2).
T4 construct: evaluate the effects of the compounds of the present disclosure on the expression of target proteins in cells; endogenous in cells; host or cells: hPBMC
T4 sequence (P15170 whole entry): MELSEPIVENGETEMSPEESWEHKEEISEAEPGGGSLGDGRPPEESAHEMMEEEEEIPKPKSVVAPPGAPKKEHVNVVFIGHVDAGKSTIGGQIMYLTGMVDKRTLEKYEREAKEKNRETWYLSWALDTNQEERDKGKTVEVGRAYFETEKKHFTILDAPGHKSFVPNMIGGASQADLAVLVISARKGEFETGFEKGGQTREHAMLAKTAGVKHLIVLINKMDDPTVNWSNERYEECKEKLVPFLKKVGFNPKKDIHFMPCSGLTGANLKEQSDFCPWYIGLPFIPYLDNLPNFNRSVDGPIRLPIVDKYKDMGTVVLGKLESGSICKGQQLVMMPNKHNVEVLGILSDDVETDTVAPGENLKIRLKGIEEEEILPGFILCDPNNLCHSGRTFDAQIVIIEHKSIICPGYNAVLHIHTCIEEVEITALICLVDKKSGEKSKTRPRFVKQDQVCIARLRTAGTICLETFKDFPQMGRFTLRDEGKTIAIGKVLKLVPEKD
T4 sequence (Q96SW2 whole entry): as the sequence (Q96SW2 whole entry) above
T4 sequence (Q16531 whole entry partner): as the sequence (Q16531 whole entry partner) above
Description: Western blot degradation of GSPT1 (hPBMC). The test is classed as cell-based. As to conditions: Table D16. The essentials: as §2

A further test concerns the target T5, CK1a (Homo sapiens, UniProt P48729+Q96SW2).
T5 construct: evaluate the effects of the compounds of the present disclosure on the expression of target proteins in cells; endogenous in cells; host or cells: hPBMC
Description: Western blot degradation of CK1a (hPBMC). The test is classed as cell-based. The note with it: Table D16. Put shortly:
as §2

A further test deals with MCF7. Briefly: CCK-8 proliferation, MCF7 (MCF-7). The test is classed as cell-based. The note with it: Homo sapiens, MCF7; CCK-8; read-out: Inhibitory activity (IC50) on tumor cell proliferation, MCF-7. Put shortly:
as §1

The target in another test is T6, IKZF3 (Homo sapiens, UniProt Q96SW2+Q9UKT9).
T6 construct: evaluate the effects of the compounds of the present disclosure on the expression of target proteins in cells; endogenous in cells; host or cells: hPBMC
Briefly: Western blot degradation of IKZF3 (hPBMC). In kind it is cell-based. The note with it: Table D16. Put shortly: as §2

A further test deals with MM.1S. Description: CCK-8 proliferation, MM.1S. The test is classed as cell-based. As to conditions: Homo sapiens, MM1.S; CCK-8; 72 hours; read-out: Inhibitory activity (IC50) on tumor cell proliferation, MM1S. The essentials:
as §1

T5 sequence (P48729 whole entry): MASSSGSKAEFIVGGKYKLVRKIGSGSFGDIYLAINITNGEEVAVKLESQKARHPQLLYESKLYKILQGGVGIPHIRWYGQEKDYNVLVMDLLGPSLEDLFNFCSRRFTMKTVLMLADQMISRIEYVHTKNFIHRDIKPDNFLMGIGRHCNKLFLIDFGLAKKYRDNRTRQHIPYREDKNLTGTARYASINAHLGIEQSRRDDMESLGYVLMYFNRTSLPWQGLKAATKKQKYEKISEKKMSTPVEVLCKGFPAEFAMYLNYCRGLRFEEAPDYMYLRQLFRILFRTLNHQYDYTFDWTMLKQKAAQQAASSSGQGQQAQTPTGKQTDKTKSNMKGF
T5 sequence (Q96SW2 whole entry): as the sequence (Q96SW2 whole entry) above
T5 sequence (Q16531 whole entry partner): as the sequence (Q16531 whole entry partner) above

For `O=C1CCC(c2ccc(CN3CCC(n4cc(NC(=O)c5cnn6ccc(N7CCOCC7)nc56)c(C(F)F)n4)CC3)cc2)C(=O)N1` (stereo not drawn) [GT-03813, N-(3-(difluoromethyl)-1-(1-(4-(2,6-dioxopiperidin-3-yl)benzyl)piperidin-4-yl)-1H-pyrazol-4-yl)-5-morpholinopyrazolo[1,5-a]pyrimidine-3-carboxamide], the IC50 in the test on SR and with MV-4-11 was 100 to 500 nM in each case.

Consider `Cc1ccsc1C(=O)n1nc(Nc2ccc(S(=O)(=O)N3CCN(Cc4ccc(C5CCC(=O)NC5=O)c(F)c4)CC3)cc2)nc1N` (stereo not drawn) [GT-06855, 3-(4-((4-((4-((5-amino-1-(3-methylthiophene-2-carbonyl)-1H-1,2,4-triazol-3-yl)amino)phenyl)sulfonyl)piperazin-1-yl)methyl)-2-fluorophenyl)piperidine-2,6-dione], for which the pIC50 in the test on MV-4-11 was 6.00 to 6.30.

For `Cc1cc(-c2nc(C(=O)Nc3cc4oc(N5CCN(Cc6ccc(C7CCC(=O)NC7=O)cc6)CC5)nc4nc3N3CC[C@@H](O)C3)co2)ccn1` (stereo partly drawn) [GT-03846, N-(2-(4-(4-(2,6-dioxopiperidin-3-yl)benzyl)piperazin-1-yl)-5-((R)-3-hydroxypyrrolidin-1-yl)oxazolo[4,5-b]pyridin-6-yl)-2-(2-methylpyridin-4-yl)oxazole-4-carboxamide], the IC50 in the test with MV-4-11 fell in the range of 50 to 100 nM.

In the case of `Cc1ccsc1C(=O)n1nc(Nc2ccc(S(=O)(=O)N3CCN(Cc4ccc(N5CCC(=O)NC5=O)cc4F)CC3)cc2)nc1N` [GT-06858, 1-(4-((4-((4-((5-amino-1-(3-methylthiophene-2-carbonyl)-1H-1,2,4-triazol-3-yl)amino)phenyl)sulfonyl)piperazin-1-yl)methyl)-3-fluorophenyl)dihydropyrimidine-2,4(1H,3H)-dione], the pIC50 in the test on MV-4-11 was 6.30 to 7.00.

On to `O=C1CCN(c2cncc(CCl)c2)C(=O)N1` [GT-07047, 1-(5-(Chloromethyl)pyridin-3-yl)dihydropyrimidine-2,4(1H,3H)-dione], for which the “Degradation of substrate protein WEE1 (substrate protein remaining %)” value at WEE1 is “B (B is defined as substrate protein remaining % > 80%)”. Also, the “Degradation of substrate protein IKZF2 (substrate protein remaining %)” value on IKZF2 was “A (A is defined as 0% ≤ substrate protein remaining % ≤ 80%)”. Besides, the “Degradation of substrate protein IKZF1 (substrate protein remaining %)” value at IKZF1 was “A (A is defined as 0% ≤ substrate protein remaining % ≤ 80%)”. Further, the “Degradation of substrate protein GSPT1 (substrate protein remaining %)” value on GSPT1 is reported as “B (B is defined as substrate protein remaining % > 80%)”. Also, at CK1a, the “Degradation of substrate protein CKla (substrate protein remaining %)” value is “A (A is defined as 0% ≤ substrate protein remaining % ≤ 80%)”. Moreover, the pIC50 in the test with MCF7 and in the test on MM.1S was 5.30 to 6.00 in each case. Moreover, the “Degradation of substrate protein IKZF3 (substrate protein remaining %)” value at IKZF3 is listed as “A (A is defined as 0% ≤ substrate protein remaining % ≤ 80%)”.

As for `Nc1nc(Nc2ccc(S(=O)(=O)N3CCN(Cc4ccc(N5CCC(=O)NC5=O)cn4)CC3)cc2)nn1C(=O)c1c(F)cccc1F` [GT-06753, 1-(6-((4-((4-((5-amino-1-(2,6-difluorobenzoyl)-1H-1,2,4-triazol-3-yl)amino)phenyl)sulfonyl)piperazin-1-yl)methyl)pyridin-3-yl)dihydropyrimidine-2,4(1H,3H)-dione], the pIC50 with MV-4-11 is 6.30 to 7.00.

As to `Cc1cc(S(=O)(=O)N2CCN(Cc3ccc(C4CCC(=O)NC4=O)cc3)CC2)ccc1Nc1ncc(Br)c(Nc2cccc(F)c2C(N)=O)n1` (stereo not drawn) [GT-06830, 2-((5-bromo-2-((4-((4-(4-(2,6-dioxopiperidin-3-yl)benzyl)piperazin-1-yl)sulfonyl)-2-methylphenyl)amino)pyrimidin-4-yl)amino)-6-fluorobenzamide], the pIC50 in the test on MV-4-11 was 6.30 to 7.00.

For `O=C1CCC(c2cc(CO)ccn2)C(=O)N1` (stereo not drawn) [GT-07050, 3-(4-(Hydroxymethyl)pyridin-2-yl)piperidine-2,6-dione], the “Degradation of substrate protein WEE1 (substrate protein remaining %)” value at WEE1 is “B (B is defined as substrate protein remaining % > 80%)”. For the same compound, the “Degradation of substrate protein IKZF2 (substrate protein remaining %)” value at IKZF2 was “B (B is defined as substrate protein remaining % > 80%)”. For the same compound, the “Degradation of substrate protein IKZF1 (substrate protein remaining %)” value at IKZF1 is “A (A is defined as 0% ≤ substrate protein remaining % ≤ 80%)”. At GSPT1, the “Degradation of substrate protein GSPT1 (substrate protein remaining %)” value was “A (A is defined as 0% ≤ substrate protein remaining % ≤ 80%)”. Besides, the “Degradation of substrate protein CKla (substrate protein remaining %)” value on CK1a is given as “A (A is defined as 0% ≤ substrate protein remaining % ≤ 80%)”. The pIC50 in the test with MCF7 and in the test on MM.1S was 5.30 to 6.00 throughout. Also, the “Degradation of substrate protein IKZF3 (substrate protein remaining %)” value at IKZF3 is “A (A is defined as 0% ≤ substrate protein remaining % ≤ 80%)”.

For `Cc1cc(S(=O)(=O)N2CCN(Cc3ccc(N4CCC(=O)NC4=O)cn3)CC2)ccc1Nc1ncc(Br)c(Nc2cccc(F)c2C(N)=O)n1` [GT-06833, 2-((5-bromo-2-((4-((4-((5-(2,4-dioxotetrahydropyrimidin-1(2H)-yl)pyridin-2-yl)methyl)piperazin-1-yl)sulfonyl)-2-methylphenyl)amino)pyrimidin-4-yl)amino)-6-fluorobenzamide], the pIC50 in the test with MV-4-11 was 7.00 to 7.30.

Turning to `Cc1ccsc1C(=O)n1nc(Nc2ccc(S(=O)(=O)N3CCN(Cc4cccc(N5CCC(=O)NC5=O)c4)CC3)cc2)nc1N` [GT-06859, 1-(3-((4-((4-((5-amino-1-(3-methylthiophene-2-carbonyl)-1H-1,2,4-triazol-3-yl)amino)phenyl)sulfonyl)piperazin-1-yl)methyl)phenyl)dihydropyrimidine-2,4(1H,3H)-dione], the pIC50 with MV-4-11 was 6.30 to 7.00.

Consider `Cc1cc(-c2nc(C(=O)Nc3cc4oc(N5CCN(Cc6ccc(C7CCC(=O)NC7=O)c(F)c6)CC5)nc4nc3N3CC[C@@H](O)C3)co2)ccn1` (stereo partly drawn) [GT-03847, N-(2-(4-(4-(2,6-dioxopiperidin-3-yl)-3-fluorobenzyl)piperazin-1-yl)-5-((R)-3-hydroxypyrrolidin-1-yl)oxazolo[4,5-b]pyridin-6-yl)-2-(2-methylpyridin-4-yl)oxazole-4-carboxamide], for which the IC50 in the test on MV-4-11 fell in the range of 50 to 100 nM.

Take `Nc1nc(Nc2ccc(S(=O)(=O)N3CCN(Cc4cccc(N5CCC(=O)NC5=O)c4)CC3)cc2)nn1C(=O)c1c(F)cccc1F` [GT-06752, 1-(3-((4-((4-((5-amino-1-(2,6-difluorobenzoyl)-1H-1,2,4-triazol-3-yl)amino)phenyl)sulfonyl)piperazin-1-yl)methyl)phenyl)dihydropyrimidine-2,4(1H,3H)-dione]: in the test with MV-4-11, the pIC50 is 6.00 to 6.30.

`O=C1CCN(c2ccc(CN3CCC(n4cc(NC(=O)c5cnn6ccc(N7CCOCC7)nc56)c(C(F)F)n4)CC3)cc2F)C(=O)N1` [GT-03814, N-(3-(difluoromethyl)-1-(1-(4-(2,4-dioxotetrahydropyrimidin-1(2H)-yl)-3-fluorobenzyl)piperidin-4-yl)-1H-pyrazol-4-yl)-5-morpholinopyrazolo[1,5-a]pyrimidine-3-carboxamide]: in the test with MV-4-11, the IC50 was in the range of 100 to 500 nM.

As for `Cc1ccsc1C(=O)n1nc(Nc2ccc(S(=O)(=O)N3CCN(Cc4ccc(C5CCC(=O)NC5=O)cc4)CC3)cc2)nc1N` (stereo not drawn) [GT-06854, 3-(4-((4-((4-((5-amino-1-(3-methylthiophene-2-carbonyl)-1H-1,2,4-triazol-3-yl)amino)phenyl)sulfonyl)piperazin-1-yl)methyl)phenyl)piperidine-2,6-dione], the pIC50 in the test on MV-4-11 is 6.30 to 7.00.

As for `Cc1ccsc1C(=O)n1nc(Nc2ccc(S(=O)(=O)N3CCN(Cc4ccc(N5CCC(=O)NC5=O)cn4)CC3)cc2)nc1N` [GT-06860, 1-(6-((4-((4-((5-amino-1-(3-methylthiophene-2-carbonyl)-1H-1,2,4-triazol-3-yl)amino)phenyl)sulfonyl)piperazin-1-yl)methyl)pyridin-3-yl)dihydropyrimidine-2,4(1H,3H)-dione], the pIC50 in the test on MV-4-11 was 6.30 to 7.00.
